Measured values published in patent US20230271993A1, “3-DEOXY-2-KETOALDONIC ACID NITROGEN-CONTAINING DERIVATIVE, PREPARATION METHOD THEREOF, AND USE THEREOF” (SICHUAN UNIVERSITY, priority 2020, published 2023).
Read-outs that look alike come from different tables or passages of the source.

Legend:
[1] = tested on: Zika virus-infected BHK cells; assay: Anti-Zika (ZIKV) virus activity test, CellTiter-Glo cell viability; format: cell-based, Zika virus SZ-SMGC-01 strain; conditions: 100 TCID50 virus per well, 9 days at 37° C.
Description: (1) Anti-Zika (ZIKV) Virus Activity Test
Test object: Zika virus-infected BHK cells
Testing Method: • (1) BBHK cells (preserved by the Academy of Military Medical Sciences) were inoculated into a 96-well plate at a concentration of 5×10^3 cells/well, and the cell culture medium was DMEM medium (purchased from Gibco Company, Cat. No. 11995065) containing 10% FBS (purchased from Gibco, Cat. No. 16000044), the plate was placed in a CO2 incubator, and incubated at 37° C. for 24 hours. • (2) The original medium in the 96-well plate was discarded, 100 μL of DMEM medium (purchased from Gibco, Cat. No. 11995065) containing 2% FBS (purchased from Gibco, Cat. No. 16000044) was taken and added into the cells. Then, the stock solution of the compound to be tested was serially diluted with the above-mentioned DMEM medium to 800 μM, 266.67 μM, 88.89 μM, 29.63 μM, 9.88 μM, 3.29 μM, 1.10 μM, 0.37 μM, and 50 μL was added to the cell culture plate. The stock solution of positive compound NITD008 (purchased from MCE Company, Cat. No. HY-12957) was serially diluted with the above DMEM medium to 80 μM, 26.67 μM, 8.89 μM, 2.96 μM, 0.99 μM, 0.33 μM, 0.11 μM, 0.04 μM, and 50 μL was added to the cell culture plate. Finally, 50 μL of Zika virus SZ-SMGC-01 strain (preserved by the Academy of Military Medical Sciences) diluted in DMEM medium containing 2% FBS was added to the cells, each well contained 100 TCID50 of the virus. The final concentration of the compound to be tested was 0.25 times the pretreatment concentration, that was, the initial concentration was 200 μM, and dilution was carried out by 3-fold series, so that the final concentrations of the compound to be tested were: 200 μM, 66.67 μM, 22.22 μM, 7.41 μM, 2.47 μM, 0.82 μM, 0.27 μM, 0.09 μM. The final concentrations of the positive compound were: 20 μM, 6.67 μM, 2.22 μM, 0.74 μM, 0.25 μM, 0.082 μM, 0.027 μM, 0.009 μM. Negative control (to the cell well, DMSO and culture medium were added, without drug) and positive control (to the cell well, DMSO, culture medium and virus were added, without drug) were set. The cell culture plates were incubated at 37° C. for 9 days. • (3) The Buffer and the substrate of CellTiter-Glo® Chemiluminescent Cell Viability Assay (purchased from Promega, Cat. No. G7573) were mixed in the dark to prepare a working solution. The working solution was mixed with PBS (purchased from Gibco, Cat. No. 10010049) at a ratio of 4:6. After the medium in the cell culture plate was discarded, 100 μl of detection reagent was added to each well, and the 96-well plate was shaken for 5 min with an orbital shaker to induce cell lysis. After stabilizing the signal in the dark for 2 minutes, a microplate reader (purchased from Molecular Devices, model SpectraMax M5) was used to measure the chemiluminescent units, the plate reading program was the preset program of CellTiter-Glo, and the cell viability was calculated:
Cell viability (%)=(A(drug treatment group)−A(positive control))/(A(negative control)−A(positive control))×100%
(§1) wherein, A represented the reading of the microplate reader.
(§2) Result evaluation: origin8.0 software was used to carry out the S-type curve fitting on the inhibition rate-concentration, and the IC50 value of the compound to be tested was calculated.

[2] = tested on: Rhinovirus (HRV-1059)-infected H1 Hela cells; assay: Anti-rhinovirus (HRV-1059) activity test, CellTiter-Glo cell viability; format: cell-based, rhinovirus HRV-1059 strain; conditions: 100 TCID50 virus per well, 6 days at 37° C., read-out: IC50 Anti-HRV (H1Hela)
From the text: (2) Anti-Rhinovirus (HRV-1059) Activity Test
Test object: Rhinovirus (HRV-1059)-infected H1 Hela cells
Testing method: • (1) H1 Hela cells (purchased from the National Experimental Cell Resource Sharing Platform, Cat. No. 3111C0001CCC000344) were inoculated into a 96-well plate at a concentration of 1.5×10^4 cells/well, and the cell culture medium was DMEM medium (purchased from Gibco, Cat. No. 11995065) containing 10% FBS (purchased from Gibco, Cat. No. 16000044), the plate was placed in a CO2 incubator and incubated at 37° C. for 24 hours. • (2) The original medium in the 96-well plate was discarded, 100 μL of DMEM medium (purchased from Gibco, Cat. No. 11995065) containing 2% FBS (purchased from Gibco, Cat. No. 16000044) was taken and added into the cells. Then the stock solution of the compound to be tested was serially diluted with the above DMEM medium to 800 μM, 266.67 μM, 88.89 μM, 29.63 μM, 9.88 μM, 3.29 μM, 1.10 μM, 0.37 μM, 0.12 μM, 0.04 μM, and 50 μL was added to the cell culture plate. The stock solution of positive compound NITD008 (purchased from MCE Company, Cat. No. HY-12957) was serially diluted with the above DMEM medium to 80 μM, 26.67 μM, 8.89 μM, 2.96 μM, 0.99 μM, 0.33 μM, 0.11 μM, 0.04 μM, 0.012 μM, 0.004 μM, 50 μL was added to the cell culture plate. Finally, 50 μL of the rhinovirus HRV-1059 strain (purchased from ATCC, Cat. No. VR-482) diluted with DMEM medium containing 2% FBS was added to the cells, the amount of virus contained in each well was 100 TCID50. The final concentration of the compound to be tested was 0.25 times of the pretreatment concentration, that was, the initial concentration was 200 μM, the dilution was carried out by 3-fold series, the final concentrations of the compound to be tested were: 200 μM, 66.67 μM, 22.22 μM, 7.41 μM, 2.47 μM, 0.82 μM, 0.27 μM, 0.09 μM, 0.03 μM, 0.01 μM. The final concentrations of the positive compound were: 20 μM, 6.67 μM, 2.22 μM, 0.74 μM, 0.25 μM, 0.082 μM, 0.027 μM, 0.009 μM, 0.003 μM, 0.001 μM. Negative control (to the cell well, DMSO and medium were added, without drug) and positive control (to the cell well, DMSO, medium and virus were added, without drug) were set. The cell culture plates were incubated at 37° C. for 6 days. • (3) The Buffer and the substrate of CellTiter-Glo® Chemiluminescent Cell Viability Assay (purchased from Promega, Cat. No. G7573) was mixed in the dark to obtain a working solution. The working solution was mixed with PBS (purchased from Gibco, Cat. No. 10010049) at a ratio of 4:6. After the medium in the cell culture plate was discarded, 100 μl of detection reagent was added to each well, and the 96-well plate was shaken for 5 min with an orbital shaker to induce cell lysis. After stabilizing the signal in the dark for 2 minutes, a microplate reader (purchased from Molecular Devices, model SpectraMax M5) was used to measure the chemiluminescent units, the plate reading program was the preset program of CellTiter-Glo, and the cell viability was calculated:
Cell viability (%)=(A(drug treatment group)−A(positive control))/(A(negative control)−A(positive control))×[…]
as §1, §2

[3] = Enterovirus, HRV1059, H1-HeLa, 144 h

Row | IC50 [2] [µM] | IC50 [2, 3] [µM] | Compound | IC50 ([1]; Zika virus, BHK, 216 h) [µM] | IC50 [1] [µM]
1 |  | > 200 | COC(=O)[C@@]1(N=[N+]=[N-])OC([C@H](OC(=O)c2ccccc2)[C@@H](COC(=O)c2ccccc2)OC(=O)c2ccccc2)[C@H](NC(C)=O)C(OC(=O)c2ccccc2)C1N=[N+]=[N-] (stereo partly shown) [Compound 6a] | 21.7 | 
2 |  | > 200 | COC(=O)[C@]1(N=[N+]=[N-])OC([C@H](OC(=O)c2ccccc2)[C@@H](COC(=O)c2ccccc2)OC(=O)c2ccccc2)[C@H](NC(C)=O)C(OC(=O)c2ccccc2)C1N=[N+]=[N-] (stereo partly shown) [Compound 6b] | 10.6 | 
3 | > 200 |  | COC(=O)[C@@]1(N=[N+]=[N-])OC([C@H](OC(=O)c2ccccc2)[C@@H](COC(=O)c2ccccc2)OC(=O)c2ccccc2)[C@H](NC(C)=O)C(OC(=O)c2ccccc2)C1N=[N+]=[N-] (stereo partly shown) [Compound 6c] |  | 11
4 | > 200 |  | COC(=O)[C@]1(N=[N+]=[N-])OC([C@H](OC(=O)c2ccccc2)[C@@H](COC(=O)c2ccccc2)OC(=O)c2ccccc2)[C@H](NC(C)=O)C(OC(=O)c2ccccc2)C1N=[N+]=[N-] (stereo partly shown) [Compound 6d] |  | 10.3
5 |  | 10.8 | COC(=O)[C@]1(N=[N+]=[N-])OC([C@@H](COC(C)=O)OC(C)=O)[C@H](OC(C)=O)C(OC(C)=O)C1N=[N+]=[N-] (stereo partly shown) [Compound 10a] | > 200 | 
6 |  | 13.3 | CC(=O)N[C@@H]1C(OC(=O)c2ccccc2)C(N=[N+]=[N-])[C@@](N=[N+]=[N-])(C(=O)O)OC1[C@H](OC(=O)c1ccccc1)[C@@H](COC(=O)c1ccccc1)OC(=O)c1ccccc1 (stereo partly shown) [Compound 13] | 20 | 
7 |  | > 200 | COC(=O)[C@@]1(N=[N+]=[N-])OC([C@H](OC(=O)c2ccccc2)[C@@H](COC(=O)c2ccccc2)OC(=O)c2ccccc2)[C@H](NC(C)=O)C(OC(=O)c2ccccc2)C1N (stereo partly shown) [Compound 14] | 14.6 | 
8 |  | 24.6 | CC1(C)OC[C@H](C2O[C@](N=[N+]=[N-])(C(=O)O)C(N=[N+]=[N-])C(O)[C@H]2O)O1 (stereo partly shown) [Compound 19] | > 200 | 
9 | 0.05 |  | C#C[C@@]1(O)[C@H](O)[C@@H](CO)O[C@H]1n1ccc2c(N)ncnc21 [NITD008, reference compound] |  | 1

Row | Compound | IC50 [2] [µM] | IC50 [2, 3] [µM] | IC50 ([1]; Zika virus, BHK, 216 h) [µM] | IC50 [1] [µM]
10 | COC(=O)[C@@]1(N=[N+]=[N-])OC([C@H](O[Si](C)(C)C(C)(C)C)[C@H]2COC(C)(C)O2)[C@H](NC(C)=O)C(O[Si](C)(C)C(C)(C)C)C1N=[N+]=[N-] (single isomer, unassigned) [Compound 4a] | 4.58 |  | 1.41 | 
11 | COC(=O)[C@@]1(N=[N+]=[N-])OC([C@H](O[Si](C)(C)C(C)(C)C)[C@H]2COC(C)(C)O2)[C@H](NC(C)=O)C(O[Si](C)(C)C(C)(C)C)C1N=[N+]=[N-] (single isomer, unassigned) [Compound 4b] | 18.9 |  |  | 2.49
